In general, IC50 refers to the midpoint of a concentration-inhibition curve.

For 1 molecule, IC50 results are on record in ChEMBL document CHEMBL4431345, “A fluorescence polarization based assay for the identification and characterization of polymerase inhibitors” (Bioorg Med Chem Lett, 2016).

The nature of assay [1]: Inhibition of Escherichia coli DNA polymerase 1 Klenow fragment preincubated for 15 mins followed by addition of DNA substrate for 60 mins in presence of dNTPS/TAMRA tracer by fluorescence polarization assay. (In general: In fluorescence polarisation assays a small probe gives low polarisation when free and higher when bound to something large.)
The nature of assay [2]: Inhibition of Escherichia coli DNA polymerase 1 Klenow fragment preincubated for 15 mins followed by addition of DNA substrate for 60 mins in presence of dNTPS by picoGreen reagent based assay.

As to `Nc1ncnc2c1ncn2[C@H]1CC[C@@H](COP(=O)(O)OP(=O)(O)OP(=O)(O)O)O1` [DDA-TRIPHOSPHATE], the IC50 is 27 µM in assay [1] and 69 µM in assay [2].
